This passage reports IC50 results from patent US9926281B2 (priority 2014, dated 2018).

One test concerns the target human ADAMTS-5 (Homo sapiens (Human), UniProt Q9UNA0). The note with it: read-out: hADAMTS-5 potency IC50.
For a further test, the target named is human TACE (Homo sapiens (Human), UniProt P78536). The note with it: read-out: TACE potency IC50.
Chain of human TACE (P78536 whole entry, looked up, change not shown): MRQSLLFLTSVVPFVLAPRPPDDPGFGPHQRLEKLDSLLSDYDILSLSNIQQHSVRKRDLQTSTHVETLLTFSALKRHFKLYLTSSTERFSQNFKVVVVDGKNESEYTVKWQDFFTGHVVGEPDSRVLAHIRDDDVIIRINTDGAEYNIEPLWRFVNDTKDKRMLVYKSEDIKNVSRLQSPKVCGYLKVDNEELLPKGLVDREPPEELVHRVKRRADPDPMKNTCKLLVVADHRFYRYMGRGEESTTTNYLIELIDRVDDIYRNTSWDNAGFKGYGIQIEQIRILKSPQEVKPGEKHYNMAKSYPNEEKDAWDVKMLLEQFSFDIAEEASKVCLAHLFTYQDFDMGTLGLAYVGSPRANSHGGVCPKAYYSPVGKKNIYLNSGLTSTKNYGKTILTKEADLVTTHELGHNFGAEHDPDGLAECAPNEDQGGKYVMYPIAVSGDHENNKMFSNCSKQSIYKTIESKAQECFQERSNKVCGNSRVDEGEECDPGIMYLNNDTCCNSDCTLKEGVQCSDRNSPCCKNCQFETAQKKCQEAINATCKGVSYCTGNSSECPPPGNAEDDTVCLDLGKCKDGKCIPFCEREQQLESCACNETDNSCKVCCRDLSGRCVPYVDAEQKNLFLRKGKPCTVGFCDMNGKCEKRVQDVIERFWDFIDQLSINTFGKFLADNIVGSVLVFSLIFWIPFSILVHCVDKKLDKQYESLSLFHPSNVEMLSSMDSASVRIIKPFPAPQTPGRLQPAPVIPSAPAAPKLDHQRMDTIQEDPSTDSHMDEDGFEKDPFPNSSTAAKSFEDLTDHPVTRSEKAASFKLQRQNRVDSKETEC

Chain of human ADAMTS-5 (Q9UNA0 262-930): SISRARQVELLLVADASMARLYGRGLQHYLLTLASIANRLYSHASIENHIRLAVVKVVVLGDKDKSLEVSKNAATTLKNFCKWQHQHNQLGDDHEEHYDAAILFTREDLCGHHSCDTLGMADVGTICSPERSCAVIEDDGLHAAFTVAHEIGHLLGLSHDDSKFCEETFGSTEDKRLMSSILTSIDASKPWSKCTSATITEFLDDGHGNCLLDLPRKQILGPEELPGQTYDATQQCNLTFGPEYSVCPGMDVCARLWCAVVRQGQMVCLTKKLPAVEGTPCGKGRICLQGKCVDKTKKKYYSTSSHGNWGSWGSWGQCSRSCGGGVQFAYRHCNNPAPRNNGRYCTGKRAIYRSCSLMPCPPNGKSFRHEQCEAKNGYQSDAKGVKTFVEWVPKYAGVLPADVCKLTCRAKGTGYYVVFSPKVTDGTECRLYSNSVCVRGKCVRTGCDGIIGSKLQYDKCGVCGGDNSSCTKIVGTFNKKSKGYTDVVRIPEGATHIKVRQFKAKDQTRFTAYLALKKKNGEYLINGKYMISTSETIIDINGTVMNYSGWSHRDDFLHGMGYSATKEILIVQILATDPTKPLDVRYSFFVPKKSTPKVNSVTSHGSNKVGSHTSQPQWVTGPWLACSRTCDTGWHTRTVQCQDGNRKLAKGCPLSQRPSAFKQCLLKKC
Experimental for human ADAMTS-5: Finally, the fluorescence is read on the Envision (Perkin Elmer) after an incubation of 90 min at 37° C.

As to `CC(CC1NC(=O)NC1=O)C(=O)N1CCN(c2ccc(F)c(Cl)c2)[C@@H](C)C1` (stereo partly drawn) [compound 441, 5-(3-((S)-4-(3-chloro-4-fluorophenyl)-3-methylpiperazin-1-yl)-2-methyl-3-oxopropyl)imidazolidine-2,4-dione], the values for the IC50 on human ADAMTS-5 and at human TACE were 59 nM and greater than 20000 nM, respectively.
On to `Cc1noc(C)c1-c1cccc(N2CCN(C(=O)CCC3(C4CC4)NC(=O)NC3=O)C[C@@H]2C)c1` (stereo partly drawn) [compound 369, 5-cyclopropyl-5-[3-[(3S)-4-[3-(3,5-dimethylisoxazol-4-yl)phenyl]-3-methyl-piperazin-1-yl]-3-oxo-propyl]imidazolidine-2,4-dione], for which the IC50 (as a rule, the midpoint of a concentration-inhibition curve) on human ADAMTS-5 was 1080 nM; on human TACE, greater than 20000 nM.
Taken in the same sequence, the figures for `Cc1nc(C2(CCC(=O)N3CCN(c4cc(F)cc(F)c4)[C@@H](C)C3)NC(=O)NC2=O)co1` (stereo partly drawn) [compound 395, 5-[3-[(3S)-4-(3,5-difluorophenyl)-3-methyl-piperazin-1-yl]-3-oxo-propyl]-5-(2-methyloxazol-4-yl)imidazolidine-2,4-dione] were 39 nM and greater than 20000 nM.
For `COc1cccc(C2(CCC(=O)N3CCN(c4cc(F)cc(F)c4)[C@@H](C)C3)NC(=O)NC2=O)n1` (stereo partly drawn) [compound 336, 5-[3-[(3S)-4-(3,5-difluorophenyl)-3-methyl-piperazin-1-yl]-3-oxo-propyl]-5-(6-methoxy-2-pyridyl)imidazolidine-2,4-dione], the results for the IC50 at human ADAMTS-5 and on human TACE were 74 nM and greater than 4000 nM, respectively.
For the molecule `Cc1cc(N2CCN(C(=O)CC[C@@]3(C)NC(=O)NC3=O)CC2)cc(C)c1Cl` [compound 401, (5R)-5-[3-[4-(4-chloro-3,5-dimethyl-phenyl)piperazin-1-yl]-3-oxo-propyl]-5-methyl-imidazolidine-2,4-dione], the IC50 on human ADAMTS-5 stood at 1120 nM.
With `O=C1NC(=O)C(CCC(=O)N2CCN(c3ccncc3)CC2)(C2CC2)N1` (stereo not shown) [compound 278, 5-cyclopropyl-5-[3-oxo-3-[4-(4-pyridyl)piperazin-1-yl]propyl]imidazolidine-2,4-dione], the IC50 at human ADAMTS-5 and at human TACE was greater than 20000 nM in each case.
For the molecule `C[C@H]1CN(C(=O)CCC2(c3ccn(C)n3)NC(=O)NC2=O)CCN1c1cc(F)cc(F)c1` (stereo partly drawn) [compound 394, 5-[3-[(3S)-4-(3,5-difluorophenyl)-3-methyl-piperazin-1-yl]-3-oxo-propyl]-5-(1-methylpyrazol-3-yl)imidazolidine-2,4-dione], the IC50 at human ADAMTS-5 was 49 nM; on human TACE, greater than 20000 nM.
Consider `C[C@H]1CN(C(=O)CCC2(c3cn(C)cn3)NC(=O)NC2=O)CCN1c1ccc(F)c(Cl)c1` (stereo partly drawn) [compound 467, 5-[3-[(3S)-4-(3-chloro-4-fluoro-phenyl)-3-methyl-piperazin-1-yl]-3-oxo-propyl]-5-(1-methylimidazol-4-yl)imidazolidine-2,4-dione], for which the IC50 at human ADAMTS-5 was 42 nM; on human TACE, greater than 4000 nM.
For the molecule `C[C@H]1CN(C(=O)CCC2(c3ccccn3)NC(=O)NC2=O)CCN1c1ccc(Cl)c(Cl)c1` (stereo partly drawn) [compound 458, 5-[3-[(3S)-4-(3,4-dichlorophenyl)-3-methyl-piperazin-1-yl]-3-oxo-propyl]-5-(2-pyridyl)imidazolidine-2,4-dione], the IC50 on human ADAMTS-5 was 21 nM; at human TACE, 2380 nM.
For `C[C@H]1CN(C(=O)CCC2(c3ccccn3)NC(=O)NC2=O)CCN1c1ccc(F)c(Cl)c1` (stereo partly drawn) [compound 457, 5-[3-[(3S)-4-(3-chloro-4-fluoro-phenyl)-3-methyl-piperazin-1-yl]-3-oxo-propyl]-5-(2-pyridyl)imidazolidine-2,4-dione], the half-inhibitory concentration (IC50) at human ADAMTS-5 amounted to 47 nM.
For the molecule `Cc1noc(N2CCN(C(=O)CCC3(C4CC4)NC(=O)NC3=O)C[C@@H]2C)n1` (stereo partly drawn) [compound 352, 5-cyclopropyl-5-[3-[(3S)-3-methyl-4-(3-methyl-1,2,4-oxadiazol-5-yl)piperazin-1-yl]-3-oxo-propyl]imidazolidine-2,4-dione], the IC50 on human ADAMTS-5 and at human TACE was greater than 20000 nM in each case.
Regarding `Cc1cccc(C2(CCC(=O)N3CCN(c4ccc(Cl)c(Cl)c4)[C@@H](C)C3)NC(=O)NC2=O)n1` (stereo partly drawn) [compound 452, 5-[3-[(3S)-4-(3,4-dichlorophenyl)-3-methyl-piperazin-1-yl]-3-oxo-propyl]-5-(6-methyl-2-pyridyl)imidazolidine-2,4-dione], at human ADAMTS-5, the IC50 is 23 nM.
Take `Cc1cc(N2CCN(C(=O)C(C)CC3(C4CC4)NC(=O)NC3=O)C[C@@H]2C)ccc1F` (stereo partly drawn) [compound 456, 5-cyclopropyl-5-(3-((S)-4-(4-fluoro-3-methylphenyl)-3-methylpiperazin-1-yl)-2-methyl-3-oxopropyl)imidazolidine-2,4-dione]: the IC50 at human ADAMTS-5 was 27 nM; at human TACE, greater than 4000 nM.
Consider `CN(C)CCC1(CCC(=O)N2CCN(c3cccc(Cl)c3)CC2)NC(=O)NC1=O` (stereo not shown) [compound 44, 5-[3-[4-(3-chlorophenyl)piperazin-1-yl]-3-oxo-propyl]-5-(2-dimethylaminoethyl)imidazolidine-2,4-dione], for which the IC50 on human TACE was greater than 20000 nM.
In the case of `C[C@H]1CN(C(=O)CC[C@@]2(C)NC(=O)NC2=O)CCN1c1ccc(Cl)c(C(F)(F)F)c1` [compound 472, (5R)-5-[3-[(3S)-4-[4-chloro-3-(trifluoromethyl)phenyl]-3-methyl-piperazin-1-yl]-3-oxo-propyl]-5-methyl-imidazolidine-2,4-dione], the figures for the IC50 on human ADAMTS-5 and on human TACE were 899 nM and greater than 4000 nM, respectively.
On the same counts, the results for `Cc1cc(N2CCN(C(=O)CC[C@@]3(C)NC(=O)NC3=O)C[C@@H]2C)cc(C)c1Cl` [compound 400, (5R)-5-[3-[(3S)-4-(4-chloro-3,5-dimethyl-phenyl)-3-methyl-piperazin-1-yl]-3-oxo-propyl]-5-methyl-imidazolidine-2,4-dione] are 383 nM and 2930 nM.
Taken in the same sequence, the figures for `C[C@H]1CN(C(=O)CCC2(C3CC3)NC(=O)NC2=O)CCN1c1cnccn1` (stereo partly drawn) [compound 286, 5-cyclopropyl-5-[3-[(3S)-3-methyl-4-pyrazin-2-yl-piperazin-1-yl]-3-oxo-propyl]imidazolidine-2,4-dione] were greater than 4000 nM and greater than 20000 nM.
In the case of `Cc1cc(Cl)c(F)cc1N1CCN(C(=O)CCC2(C)NC(=O)NC2=O)C[C@@H]1C` (stereo partly drawn) [compound 202, 5-[3-[(3S)-4-(4-chloro-5-fluoro-2-methyl-phenyl)-3-methyl-piperazin-1-yl]-3-oxo-propyl]-5-methyl-imidazolidine-2,4-dione], the IC50 at human ADAMTS-5 stood at 724 nM.
For the molecule `C[C@H]1CN(C(=O)CCC2(c3ccccn3)NC(=O)NC2=O)CCN1c1cccc(F)c1` (stereo partly drawn) [compound 345, 5-[3-[(3S)-4-(3-fluorophenyl)-3-methyl-piperazin-1-yl]-3-oxo-propyl]-5-(2-pyridyl)imidazolidine-2,4-dione], the IC50 at human ADAMTS-5 is 50 nM; on human TACE, greater than 4000 nM.
Regarding `Cc1cc(N2CCN(C(=O)CCC3(CC(=O)NCCO)NC(=O)NC3=O)CC2)ccc1Cl` (stereo not shown) [Cpd 402, 2-[4-[3-[4-(4-chloro-3-methyl-phenyl)piperazin-1-yl]-3-oxo-propyl]-2,5-dioxo-imidazolidin-4-yl]-N-(2-hydroxyethyl)acetamide], on human ADAMTS-5, the IC50 stood at 732 nM.
`COCCOCC1(CC(C)C(=O)N2CCN(c3cc(Cl)cc(Cl)c3)[C@@H](C)C2)NC(=O)NC1=O` (stereo partly drawn) [compound 221, 5-[3-[(3S)-4-(3,5-dichlorophenyl)-3-methyl-piperazin-1-yl]-2-methyl-3-oxo-propyl]-5-(2-methoxyethoxymethyl)imidazolidine-2,4-dione]: the IC50 on human TACE was found to be 3200 nM.
`CC(CC1(C2CN(C)C2)NC(=O)NC1=O)C(=O)N1CCN(c2ccc(F)c(F)c2)[C@@H](C)C1` (stereo partly drawn) [Cpd 399, 5-[3-[(3S)-4-(3,4-difluorophenyl)-3-methy-piperazin-1-yl]-2-methyl-3-oxo-propy]-5-(1-methylazetidin-3-yl)imidazolidine-2,4-dione]: the IC50 at human ADAMTS-5 is 163 nM.
The same measure, in the same setting: the result for `COCCOCC1(CC(C)C(=O)N2CCN(c3cc(Cl)cc(Cl)c3)[C@@H](C)C2)NC(=O)NC1=O` (stereo partly drawn) [compound 426, 5-(3-((S)-4-(3,5-dichlorophenyl)-3-methylpiperazin-1-yl)-2-methyl-3-oxopropyl)-5-((2-methoxyethoxy)methyl)imidazolidine-2,4-dione] reads 110 nM; that for `Cc1c(Cl)cc(F)cc1N1CCN(C(=O)CCC2(C)NC(=O)NC2=O)CC1` (stereo not shown) [compound 293, 5-[3-[4-(3-chloro-5-fluoro-2-methyl-phenyl)piperazin-1-yl]-3-oxo-propyl]-5-methyl-imidazolidine-2,4-dione], 294 nM; that for `CC(CC1(c2ccccn2)NC(=O)NC1=O)C(=O)N1CCN(c2ccc(F)c(Cl)c2)[C@@H](C)C1` (stereo partly drawn) [compound 245, 5-[3-[(3S)-4-(3-chloro-4-fluoro-phenyl)-3-methyl-piperazin-1-yl]-2-methyl-3-oxo-propyl]-5-(2-pyridyl)imidazolidine-2,4-dione], 17 nM.
For the molecule `C[C@@H]1CN(C(=O)CC[C@@]2(C3CC3)NC(=O)NC2=O)CCN1c1cc(F)cc(F)c1` [compound 403, (5S)-5-cyclopropyl-5-[3-[(3R)-4-(3,5-difluorophenyl)-3-methyl-piperazin-1-yl]-3-oxo-propyl]imidazolidine-2,4-dione], on human ADAMTS-5, the IC50 was found to be 168 nM.
Regarding `C[C@H]1CN(C(=O)CCC2(C3CC3)NC(=O)NC2=O)CCN1c1ccc2ncsc2c1` (stereo partly drawn) [compound 305, 5-[3-[(3S)-4-(1,3-benzothiazol-6-yl)-3-methyl-piperazin-1-yl]-3-oxo-propyl]-5-cyclopropyl-imidazolidine-2,4-dione], the IC50 at human TACE was greater than 20000 nM.
For the molecule `CNc1ccccc1N1CCN(C(=O)CCC2(C3CC3)NC(=O)NC2=O)CC1` (stereo not shown) [compound 185, 5-cyclopropyl-5-[3-[4-[2-(methylamino)phenyl]piperazin-1-yl]-3-oxo-propyl]imidazolidine-2,4-dione], the IC50 at human ADAMTS-5 was greater than 4000 nM.
Same read-out and setting: to `CC(CC1(c2ccccn2)NC(=O)NC1=O)C(=O)N1CCN(c2ccc(F)c(Cl)c2)[C@@H](C)C1` (stereo partly drawn) [compound 437, 5-(3-((S)-4-(3-chloro-4-fluorophenyl)-3-methylpiperazin-1-yl)-2-methyl-3-oxopropyl)-5-(pyridin-2-yl)imidazolidine-2,4-dione] belongs 17 nM.
